Measurements reported in patent US9481659B2, “Selective heterocyclic sphingosine 1 phosphate receptor modulators” (Celgene International II SÀRL, priority 2011, dated 2016).
Where a name gives a salt, the structure may show the parent alone.

Target: S1P1/EDG1 (Homo sapiens, UniProt P21453)
Assay: S1P1 CRE-bla CHOK1 reporter assay, inhibition of Forskolin induced cAMP
Format: cell-based
Conditions: agonist activity range; S1P1 CRE-bla CHOK1 cells, 2 μM Forskolin; read-out: S1P1 ACTIVITY
Method: Generation of S1P1-Mediated Inhibition of cAMP Reporter Assay
A mammalian expression plasmid containing S1P1/EDG1 cloned into pcDNA3.1 was purchased from Missouri S&T cDNA Resource Centre. […] S1P1/pcDNA3.1 was transfected into the CRE-bla CHO K1 (Invitrogen) cell line, and stable single cell clones were selected using standard techniques.
S1P1 CRE-Bla CHOK1 Reporter Assay—Characterization of S1P1 Agonists
Cells were seeded into 384-well black wall/clear bottom plates at 10^4 cells/well/19.5 μl assay media (DMEM-phenol free, 0.5% charcoal/dextran stripped serum, 2 mM glutamine, 0.1 mM NEAA, 1 mM Na-Pyruvate, 25 mM Hepes) and incubated for 18 hrs at 37° C. in 5% CO2. Dose response curves (10-point) were generated in 10 mM Hepes, 0.1% Pluronic F127, in the presence of Forskolin. Cells were treated with 0.5 μl compound in the presence of 2 μM Forskolin for 4 hrs at 37° C. The FRET-based β-lactamase fluorescent substrate (LiveBLAzer™-FRET B/G Loading Kit CC4-AM; Invitrogen) was prepared according to manufacturer's directions, and incubated with cells for 2 hrs at room temperature.

Chain of S1P1/EDG1 (P21453 whole entry): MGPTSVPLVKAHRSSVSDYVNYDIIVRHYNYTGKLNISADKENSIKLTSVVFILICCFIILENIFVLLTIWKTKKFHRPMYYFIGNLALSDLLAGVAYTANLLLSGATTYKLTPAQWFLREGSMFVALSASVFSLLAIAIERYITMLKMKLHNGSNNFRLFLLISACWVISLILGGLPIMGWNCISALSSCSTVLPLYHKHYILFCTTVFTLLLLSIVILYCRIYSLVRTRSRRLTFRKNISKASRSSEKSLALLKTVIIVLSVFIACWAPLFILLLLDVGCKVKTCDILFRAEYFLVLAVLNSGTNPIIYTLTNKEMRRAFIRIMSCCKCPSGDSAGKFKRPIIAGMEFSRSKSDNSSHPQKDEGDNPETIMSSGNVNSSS

First: CC(C)Oc1ccc(-c2nnc(-c3cccc4c3CCC4NS(=O)(=O)CCN3CC[C@@H](O)C3)s2)cc1C#N (stereo in doubt) [Compound 37, N—((S)-4-(5-(3-cyano-4-isopropoxyphenyl)-1,3,4-thiadiazol-2-yl)-2,3-dihydro-1H-inden-1-yl)-2-((R)-3-hydroxypyrrolidin-1-yl)ethanesulfonamide]
Second: CC(C)Oc1ccc(-c2nnc(-c3cccc4c3CC[C@H]4NC(=O)N3CC[C@H](O)C3)s2)cc1C#N [Compound 54]
The EC50 of the first is higher: 0.5 to 5 nM for the first, 0.05 to 0.5 nM for the second. The second is the more potent here.

First: CC(C)Oc1ccc(-c2nnc(-c3cccc4c3CCC4NS(=O)(=O)CCN3CC[C@@H](O)C3)s2)cc1C#N (stereo in doubt) [Compound 38, N—((R)-4-(5-(3-cyano-4-isopropoxyphenyl)-1,3,4-thiadiazol-2-yl)-2,3-dihydro-1H-inden-1-yl)-2-((R)-3-hydroxypyrrolidin-1-yl)ethanesulfonamide]
Second: CC(C)Oc1ccc(-c2nnc(-c3cccc4c3CC[C@H]4NS(=O)(=O)CC(=O)O)s2)cc1C#N [Compound 41, (R)-2-(N-(4-(5-(3-cyano-4-isopropoxyphenyl)-1,3,4-thiadiazol-2-yl)-2,3-dihydro-1H-inden-1-yl)sulfamoyl)acetic acid]
The EC50 of the first is higher: 0.5 to 5 nM for the first, under 0.05 nM for the second. The second is the more potent here.

First: CC(C)Oc1ccc(-c2nnc(-c3cccc4c3CC[C@H]4O)s2)cc1C#N [Compound 2, (R)-5-(5-(1-hydroxy-2,3-dihydro-1H-inden-4-yl)-1,3,4-thiadiazol-2-yl)-2-isopropoxybenzonitrile]
Second: CC(C)Oc1ccc(-c2nnc(-c3cccc4c3CC[C@H]4N)s2)cc1C#N [Compound 5, (R)-5-(5-(1-amino-2,3-dihydro-1H-inden-4-yl)-1,3,4-thiadiazol-2-yl)-2isopropoxybenzonitrile hydrochloride]
The EC50 of the first is lower: 0.05 to 0.5 nM for the first, 0.5 to 5 nM for the second. The first is the more potent here.

First: CC(C)Oc1ccc(-c2nnc(-c3cccc4c3CC[C@H]4NC(=O)CN)s2)cc1C#N [Compound 9]
Second: CC(C)Oc1ccc(-c2nnc(-c3cccc4c3CC[C@H]4NC(=O)CN(C)C)s2)cc1C#N [Compound 49]
The EC50 of the first is lower: 0.05 to 0.5 nM for the first, 0.5 to 5 nM for the second. The first is the more potent here.

Compared with `CC(C)Oc1ccc(-c2nnc(-c3cccc4c3CC[C@H]4NCCO)s2)cc1C#N` [Compound 17, (R)-5-(5-(1-((2-hydroxyethyl)amino)-2,3-dihydro-1H-inden-4-yl)-1,3,4-thiadiazol-2-yl)-2-isopropoxybenzonitrile], `COCCN[C@@H]1CCc2c(-c3nnc(-c4ccc(OC(C)C)c(C#N)c4)s3)cccc21` [Compound 19] is higher in EC50: 0.05 to 0.5 nM for the first, 0.5 to 5 nM for the second.

`CC(C)Oc1ccc(-c2nnc(-c3cccc4c3CC[C@H]4NCC(=O)N(C)C)s2)cc1C#N` [Compound 22, (R)-2-((4-(5-(3-cyano-4-isopropoxyphenyl)-1,3,4-thiadiazol-2-yl)-2,3-dihydro-1H-inden-1-yl)amino)-N,N-dimethylacetamide hydrochloride] and `CC(C)Oc1ccc(-c2nnc(-c3cccc4c3CC[C@H]4NCC(=O)O)s2)cc1C#N` [Compound 27, (R)-2-((4-(5-(3-cyano-4-isopropoxyphenyl)-1,3,4-thiadiazol-2-yl)-2,3-dihydro-1H-inden-1-yl)amino)acetic acid] fall in the same range of EC50: 0.05 to 0.5 nM for the first, 0.05 to 0.5 nM for the second.

`CC(C)Oc1ccc(-c2nnc(-c3cccc4c3CC[C@H]4NCC(=O)N3CCOCC3)s2)cc1C#N` [Compound 25] and `CC(C)Oc1ccc(-c2nnc(-c3cccc4c3CC[C@H]4NCC(=O)N3CCCC3)s2)cc1C#N` [Compound 39] fall in the same range of EC50: 0.05 to 0.5 nM for the first, 0.05 to 0.5 nM for the second.

First: CC(C)Oc1ccc(-c2nnc(-c3cccc4c3CC[C@H]4NCc3ncc[nH]3)s2)cc1C#N [Compound 29, (R)-5-(5-(1-(((1H-imidazol-2-yl)methyl)amino)-2,3-dihydro-1H-inden-4-yl)-1,3,4-thiadiazol-2-yl)-2-isopropoxybenzonitrile]
Second: CC(C)Oc1ccc(-c2ncc(-c3cccc4c3CC[C@H]4NCc3ncc[nH]3)s2)cc1C#N [Compound 109, (R)-5-(5-(1-(((1H-imidazol-2-yl)methyl)amino)-2,3-dihydro-1H-inden-4-yl)thiazol-2-yl)-2-isopropoxybenzonitrile]
The EC50 of the first is lower: 0.05 to 0.5 nM for the first, 0.5 to 5 nM for the second. The first is the more potent here.

First: CC(C)Oc1ccc(-c2nnc(-c3cccc4c3CC[C@H]4NCCS(C)(=O)=O)s2)cc1C#N [Compound 32, (R)-2-isopropoxy-5-(5-(1-((2-(methylsulfonyl)ethyl)amino)-2,3-dihydro-1H-inden-4-yl)-1,3,4-thiadiazol-2-yl)benzonitrile]
Second: CC(C)Oc1ccc(-c2nnc(-c3cccc4c3CC[C@H]4NS(C)(=O)=O)s2)cc1C#N [Compound 34, (R)—N-(4-(5-(3-cyano-4-isopropoxyphenyl)-1,3,4-thiadiazol-2-yl)-2,3-dihydro-1H-inden-1-yl)methanesulfonamide]
The EC50 of the first is lower: under 0.05 nM for the first, 0.05 to 0.5 nM for the second. The first is the more potent here.

Compared with `CC(C)Oc1ccc(-c2nnc(-c3cccc4c3CC[C@H]4NS(N)(=O)=O)s2)cc1C#N` [Compound 48, (R)—N-(4-(5-(3-cyano-4-isopropoxyphenyl)-1,3,4-thiadiazol-2-yl)-2,3-dihydro-1H-inden-1-yl) sulfamide], `COC(=O)N[C@@H]1CCc2c(-c3nnc(-c4ccc(OC(C)C)c(C#N)c4)s3)cccc21` [Compound 68] is higher in EC50: under 0.05 nM for the first, 0.05 to 0.5 nM for the second. The first is the more potent here.

`CC(C)Oc1ccc(-c2nnc(-c3cccc4c3CC[C@H]4NC(=O)N3CC(C(=O)O)C3)s2)cc1C#N` [Compound 50] and `CC(C)Oc1ccc(-c2nnc(-c3cccc4c3CC[C@H]4NC(=O)N3CC(O)C3)s2)cc1C#N` [Compound 65] fall in the same range of EC50: 0.05 to 0.5 nM for the first, 0.05 to 0.5 nM for the second.

First: CC(C)Oc1ccc(-c2nnc(-c3cccc4c3CC[C@H]4NC(=O)N3CCC[C@H](O)C3)s2)cc1C#N [Compound 61]
Second: CC(C)Oc1ccc(-c2nnc(-c3cccc4c3CC[C@H]4NC(=O)N3CCC(O)CC3)s2)cc1C#N [Compound 62]
The EC50 of the first is lower: 0.05 to 0.5 nM for the first, 0.5 to 5 nM for the second. The first is the more potent here.

`CC(C)Oc1ccc(-c2ncc(-c3cccc4c3CC[C@H]4O)s2)cc1C#N` [Compound 69, (R)-5-(5-(1-hydroxy-2,3-dihydro-1H-inden-4-yl)thiazol-2-yl)-2-isopropoxy benzonitrile] and `CC(=O)N[C@@H]1CCc2c(-c3cnc(-c4ccc(OC(C)C)c(C#N)c4)s3)cccc21` [Compound 87] fall in the same range of EC50: 0.05 to 0.5 nM for the first, 0.05 to 0.5 nM for the second.

`CC(C)Oc1ccc(-c2ncc(-c3cccc4c3CC[C@H]4NC(=O)CO)s2)cc1C#N` [Compound 74] and `CC(C)Oc1ccc(-c2ncc(-c3cccc4c3CC[C@H]4NC(=O)CN)s2)cc1C#N` [Compound 77] fall in the same range of EC50: 0.05 to 0.5 nM for the first, 0.05 to 0.5 nM for the second.

Compared with `COCC(=O)N[C@@H]1CCc2c(-c3cnc(-c4ccc(OC(C)C)c(C#N)c4)s3)cccc21` [Compound 75], `COC(=O)N[C@@H]1CCc2c(-c3cnc(-c4ccc(OC(C)C)c(C#N)c4)s3)cccc21` [Compound 89] is higher in EC50: 0.05 to 0.5 nM for the first, 0.5 to 5 nM for the second. The first is the more potent here.

`CC(C)Oc1ccc(-c2ncc(-c3cccc4c3CC[C@H]4NC(=O)[C@@H](N)CO)s2)cc1C#N` [Compound 79] and `CC(C)Oc1ccc(-c2ncc(-c3cccc4c3CC[C@H]4NC(=O)[C@H](N)CO)s2)cc1C#N` [Compound 80] fall in the same range of EC50: 0.05 to 0.5 nM for the first, 0.05 to 0.5 nM for the second.

First: CC(C)Oc1ccc(-c2ncc(-c3cccc4c3CC[C@H]4NC(=O)CN(C)C)s2)cc1C#N [Compound 81]
Second: CC(C)Oc1ccc(-c2ncc(-c3cccc4c3CC[C@H]4NCC(=O)O)s2)cc1C#N [Compound 96, (R)-2-((4-(2-(3-cyano-4-isopropoxyphenyl)thiazol-5-yl)-2,3-dihydro-1H-inden-1-yl)amino)acetic acid]
The EC50 of the first is higher: 0.5 to 5 nM for the first, 0.05 to 0.5 nM for the second.

`CC(C)Oc1ccc(-c2ncc(-c3cccc4c3CC[C@H]4NC(=O)Cc3ccccc3)s2)cc1C#N` [Compound 83] and `CC(C)Oc1ccc(-c2ncc(-c3cccc4c3CC[C@H]4NC(=O)CN3CCCC3)s2)cc1C#N` [Compound 85] cannot be ordered by EC50: over 5 nM for the first, over 5 nM for the second.

`CC(C)Oc1ccc(-c2ncc(-c3cccc4c3CC[C@H]4NCCO)s2)cc1C#N` [Compound 91, (R)-5-(5-(1-((2-hydroxyethyl)amino)-2,3-dihydro-1H-inden-4-yl)thiazol-2-yl)-2-isopropoxybenzonitrile] and `COCCN[C@@H]1CCc2c(-c3cnc(-c4ccc(OC(C)C)c(C#N)c4)s3)cccc21` [Compound 93] fall in the same range of EC50: 0.5 to 5 nM for the first, 0.5 to 5 nM for the second.

First: CC(C)Oc1ccc(-c2ncc(-c3cccc4c3CC[C@H]4NCC(=O)N3CCCC3)s2)cc1C#N [Compound 100]
Second: CC(C)Oc1ccc(-c2ncc(-c3cccc4c3CC[C@H]4NCC(=O)N3CCNCC3)s2)cc1C#N [Compound 107]
The EC50 of the first is lower: 0.05 to 0.5 nM for the first, 0.5 to 5 nM for the second.

`CC(C)Oc1ccc(-c2ncc(-c3cccc4c3CC[C@H]4NCC(=O)N3CC[C@H](O)C3)s2)cc1C#N` [Compound 102, 5-(5-((R)-1-((2-((S)-3-hydroxypyrrolidin-1-yl)-2-oxoethyl)amino)-2,3-dihydro-1H-inden-4-yl)thiazol-2-yl)-2-isopropoxybenzonitrile hydrochloride] and `CC(C)Oc1ccc(-c2ncc(-c3cccc4c3CC[C@H]4NCC(=O)N3CC[C@@H](O)C3)s2)cc1C#N` [Compound 103] fall in the same range of EC50: 0.05 to 0.5 nM for the first, 0.05 to 0.5 nM for the second.

First: CC(C)Oc1ccc(-c2ncc(-c3cccc4c3CC[C@@H]4NCC(=O)N3CC[C@@H](O)C3)s2)cc1C#N [Compound 105]
Second: CC(C)Oc1ccc(-c2ncc(-c3cccc4c3CC[C@H]4NS(C)(=O)=O)s2)cc1C#N [Compound 111, (R)—N-(4-(2-(3-cyano-4-isopropoxyphenyl)thiazol-5-yl)-2,3-dihydro-1H-inden-1-yl)methanesulfonamide]
The EC50 of the first is higher: over 5 nM for the first, 0.05 to 0.5 nM for the second.

First: CCS(=O)(=O)N[C@@H]1CCc2c(-c3cnc(-c4ccc(OC(C)C)c(C#N)c4)s3)cccc21 [Compound 113]
Second: COCCS(=O)(=O)N[C@@H]1CCc2c(-c3cnc(-c4ccc(OC(C)C)c(C#N)c4)s3)cccc21 [Compound 116]
The EC50 of the first is lower: 0.05 to 0.5 nM for the first, 0.5 to 5 nM for the second.
